# Data as given in PMC8407143 (Bioorganic & medicinal chemistry letters, 2021).
# pKd: −log10 of the molar value. Entries after “also recorded” stand apart in the source; their conditions may differ.
# How the values were obtained:
# E. coli IspF [1] = biological target: T1, E. coli IspF (Escherichia coli, UniProt P62617); details: cited from earlier work
# T1 sequence (P62617 1-159): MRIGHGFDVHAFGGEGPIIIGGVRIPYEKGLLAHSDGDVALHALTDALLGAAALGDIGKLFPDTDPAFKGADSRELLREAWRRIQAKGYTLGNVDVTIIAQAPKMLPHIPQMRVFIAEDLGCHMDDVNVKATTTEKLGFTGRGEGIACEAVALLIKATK
# E. coli IspF [2] = biological target: T1, E. coli IspF; type: binding; details: pH 7.4
# BpIspF = BpIspF (Burkholderia pseudomallei, UniProt Q3JRA0); type: binding
# Sequence of BpIspF (Q3JRA0 whole entry, looked up): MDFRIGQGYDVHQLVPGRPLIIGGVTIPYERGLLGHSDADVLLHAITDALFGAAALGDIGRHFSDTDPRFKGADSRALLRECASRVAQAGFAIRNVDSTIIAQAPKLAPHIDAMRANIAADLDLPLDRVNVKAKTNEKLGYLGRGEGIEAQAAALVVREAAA
# [3] = biological target: B. pseudomallei IspF (BpIspF) (Burkholderia pseudomallei, UniProt Q3JRA0); assay: biochemical; type: binding; details: for pKd: KD,app
# Sequence of B. pseudomallei IspF (BpIspF) (Q3JRA0 whole entry, looked up): as above
# E. coli IspF [4] = biological target: T1, E. coli IspF; details: cited from earlier work; remark: listed apart in the source
structure (smiles),measurement,setting,value
"N[C@@H](Cc1c[nH]c2ccccc12)C(=O)NO [L-tryptophan hydroxamate (3), L-tryptophan hydroxamate]",pKd,E. coli IspF [1],~5.70
same,N (stoichiometry),E. coli IspF [2],1.2 ± 0.3
same,"Relative Percent Saturation Transfer, proton A",BpIspF,100%
same,"Relative Percent Saturation Transfer, proton B",BpIspF,60–65%
same,"Relative Percent Saturation Transfer, proton C",BpIspF,80–85%
same,"Relative Percent Saturation Transfer, proton D",BpIspF,75–80%
same,"Relative Percent Saturation Transfer, proton E",BpIspF,80–85%
same,"Relative Percent Saturation Transfer, proton F",BpIspF,25–30%
same,"Relative Percent Saturation Transfer, proton G",BpIspF,50–55%
same,binding at pH 6.0 compared to pH 7.4 (fold weaker),[3],approximately 25 fold
same,N (stoichiometry),[3]; pH 7.4,1.5 ± 0.2
same,N (stoichiometry),[3]; pH 8,1.4 ± 0.4
"CC(C)=CCC/C(C)=C/COP(=O)(O)OP(=O)(O)O [geranyl diphosphate (GPP), geranyl diphosphate, reference compound]",interaction with BpIspF by STD NMR (in words),BpIspF,did not show significant interaction
"N[C@@H](Cc1c[nH]c2ccccc12)C(=O)O [L-tryptophan, reference compound]",pKd,[3],< 3.00
same,binding (in words),[3]; pH 7.4,did not show appreciable binding
N[C@H](Cc1c[nH]c2ccccc12)C(=O)NO [D-tryptophan hydroxamate],change in affinity relative to L-tryptophan hydroxamate (3),[3],less than a twofold drop in affinity; also recorded: less than two-fold weaker
same,N (stoichiometry),[3]; pH 7.4,0.7
"N[C@H](Cc1c[nH]c2ccccc12)C(=O)O [D-tryptophan, reference compound]",pKd,[3],< 3.00
same,binding (in words),[3]; pH 7.4,undetectable binding; also recorded: did not show appreciable binding
"CC(C)=CCC/C(C)=C/CC/C(C)=C/CO[P@@](=O)(O)OP(=O)(O)O (stereo in doubt) [farnesyl diphosphate (FPP), farnesyl diphosphate]",direct feedback inhibition of E. coli IspF (in words),E. coli IspF [4],did not observe direct feedback inhibition
